Experimental findings from US20060148646A1, “Controlled release fertilizers containing calcium sulfate and processes for making same” (priority 2004, published 2006) are described below.

Data set [1] is described as follows: Controlled Release Soil Test (irrigated soil burial test). The data set is classed as physicochemical. An excerpt:
To measure the relative solubilities of the products in soil, an irrigated soil burial test (“Controlled Release Soil Test”) was devised such that granules could be retrieved for measurement of their nitrogen content. The following is a description of the test.
Controlled Release Soil Test
Procedure for Controlled Release Soil Test
1. Screen the sample to obtain −6+7 Tyler mesh granules for the test.
2. Label a freezer container with the test description.
3. Place the freezer container on the 1200 g balance and tare out.
4. Place 300 g of potting soil with a 40% moisture content into the container and record the weight.
5. Over the soil place two (2) pieces of fiberglass mesh with 14 meshes to the inch and 1/16 inch openings.
6. Tare out the container with the soil and fiberglass mesh screens.
7. Spread 5 grams of −6+7 Tyler mesh granules over the screen in a single layer and record the weight.
8. Place a large square of fiberglass mesh over the granules, with a stainless steel screen cut to fit over it, so that the shape of the container has been mirrored.
9. Once this is shaped, tare out the container and add 150 g of soil and record the weight.
10. Repeat this process for each sample to be tested (in triplet if possible).
11. After all containers are completed, fill a mist spray bottle with de-ionized water and prime.
12. Tare out the weight of the primed mist bottle.
13. Mist 4 g of water into each container and immediately place the lid on container and seal.
14. After the fertilizer granules have been submerged in a humid soil environment for the allotted time (9 hours, 24 hours, and 3 days), the 150 g of soil is removed from the container.
15. Weigh to the nearest 0.0001 g in aluminum weigh pan and tare out.
16. Gently remove the two pieces of fiberglass mesh, which contains the remaining fertilizer granules.
17. Transfer the granules to the aluminum weigh pan and record the weight of the fertilizer granules.
18. Place the fertilizer granules in a laboratory oven to dry at low temperature (50° C.) for 13 hours.
19. Remove the dry sample from the oven, weigh to the nearest 0.0001 g and record weight.
20. Place the dry fertilizer sample into a 125 mL plastic sample bottle containing 20 g of de-ionized water.
21. Allow the sample to dissolve for 3 hours.
22. Place approximately 1 ml aliquot of the sample solution onto the sample stage of a refractometer (e.g., Abbe Refractometer).
23. Record the refractive index and temperature of the solution.
24. Calculate the percent urea retained from the original fertilizer sample.
To measure the slow or controlled release of the present compositions a Controlled Release Soil Test was employed, described as follows. […]

Data set [2] concerns Hybrid “419” Bermudagrass. As to the kind of experiment: Visual turf quality rating, golf course fairway (Example 18). The class given is in vivo. The procedure: (§1) The effect of nitrogen type was evaluated on the quality of hybrid bermudagrass grown under golf course conditions. Five fertilizer compositions were tested which included […] of the present invention, urea and Scotts Turf Builder. Nitrogen sources were applied individually at a rate of 1 lb N/1,000 ft^2 on Apr. 19, 2004. Field test plots were rated weekly for visual quality and scanned for digital image analysis.
(§2) Research was conducted on a fairway at Pleasant Valley Country Club in Little Rock, Arkansas. The hybrid “419” was bermudagrass was grown and was mowed at 0.5 inches height and clippings were not collected. Nitrogen sources were applied at a rate of 1 lb N/1,000 ft^2 on Apr. 19, 2004. Plots were 3 ft.×6 ft. Air temperatures on April 19th were 65-75° F. Turf quality ratings were made weekly by a single evaluator. Quality ratings considered turf growth and color. A rating of 6 was considered the minimum acceptable turf; a rating of 9 was not considered favorable from a management standpoint since growth was excessive and required frequent mowing. A visual rating of 8 would be considered excellent. Plots were also evaluated weekly using a digital image analysis. Digital images were taken with a Nikon CoolPix 880 camera with a shutter speed of 1/30 sec. and an aperture of f/2.8. Images were downloaded to a personal computer for subsequent analysis. Ratings were terminated when the nitrogen treated plots could not be visually separated from the control. Treatments consisted of 4 single plot replications. The experimental design was a completely randomized design.

In data set [3] the test system is Hybrid “419” Bermudagrass. As to the kind of experiment: Digital image analysis, measured color hue (Example 18). The data set is classed as in vivo. Details: unit not given here. The note with it: mean of 4 repetitions; fertilizer applied Apr. 19, 2004. The procedure:
as §1, §2

Where [4] appears, read: 1 lb N/1,000 ft^2 applied Apr. 19, 2004.

As for `N.N.O=S(=O)(O)O` [AS, (NH4)2SO4], the “Control Release Soil Test 9 HR (nitrogen retained)” value in data set [1] (ammonium sulfate based granulation products, 9 hours) was 56.8%. Moreover, in data set [1] (ammonium sulfate based granulation products, 24 hours), the “Control Release Soil Test 24 HR (nitrogen retained)” value came to 30.0%. In addition, the “Control Release Soil Test 3 DAY (nitrogen retained)” value in data set [1] (ammonium sulfate based granulation products, 3 days) amounted to 0%.

`NC(N)=O` [Urea, Carbamide]: in data set [2] (setting [4]), the “Visual Turf Quality Jun. 1, 2004” value is given as 7.7 cde; the “Visual Turf Quality Jun. 7, 2004” value came to 7.7bcde; the “Visual Turf Quality Jun. 14, 2004” value was found to be 7.6bcd; the “Visual Turf Quality Jun. 21, 2004” value is 7.5bc. In data set [2] (setting [4]), the “Visual Turf Quality May 3, 2004” value was found to be 7.5abcd; the “Visual Turf Quality May 9, 2004” value stood at 7.3bcd; the “Visual Turf Quality May 16, 2004” value was 7.5abcd; the “Visual Turf Quality May 24, 2004” value is recorded as 7.7bcdef. For the same molecule, the “Visual Turf Quality Apr. 19, 2004” value in data set [2] (day of application, 1 lb N/1,000 ft^2, 6 = minimum acceptable, 8 excellent) turned out to be 6.5. In data set [1], the “time to complete dissolution in the Controlled Release Soil Test” value is no more than 9 h. Moreover, in data set [3], the “Hue Jun. 1, 2004” value was 31.589; the “Hue Jun. 7, 2004” value is 27.101; the “Hue Jun. 14, 2004” value was 28.324; the “Hue Jun. 21, 2004” value is reported as 25.750. Moreover, in data set [3], the “Hue May 3, 2004” value came out at 29.085; the “Hue May 10, 2004” value is listed as 30.702; the “Hue May 17, 2004” value was determined as 30.920; the “Hue May 24, 2004” value turned out to be 29.943.
